# System: HBV
# Assay: HBV-DNA Antiviral Assay Using HepG2.117 Cells
# Assay type: cell-based
# Details: Hepatitis B virus, HepG2.117, 96 h, intracellular HBV DNA by qPCR, day 4
# Protocol: The following assay procedure describes the HBV antiviral assay, using HepG2.117 cells, which carry a stably integrated genotype D HBV genome under the control of a Tet-off promoter, and intracellular HBV DNA quantification as endpoint. Cell viability is assessed in parallel by measuring the intracellular ATP content using ATPlite (Perkin Elmer).
# On day 0, HepG2.117 cells (which are maintained in routine cell culture with doxycycline present in the medium at a final concentration of 1 μg/mL) were seeded in 96-well plates (white with clear bottom) at a density of 2.0×10^4 cells/well (0.1 mL/well) in medium without doxycycline to induce pgRNA transcription and subsequent formation of HBV particles. The cells were incubated at 37° C. and 5% CO2.
# On day 1, medium was removed from each well, the test articles were diluted in culture medium without doxcycyline and 100 μL was added to cell culture wells (9 concentrations, 4-fold dilution). For each plate, 6 untreated (merely DMSO) wells were included. The final concentration of DMSO in the culture medium was 2%. Each plate was prepared in duplicate (one for HBV DNA extraction, one for ATPlite measurement). The cells were incubated at 37° C. and 5% CO2 for 3 days.
# On day 4, cell viability was assessed using ATPlite and cell lysates were prepared for HBV DNA extraction and subsequent quantification by qPCR.
# Medium was removed from each well and 100 μL of 0.33% NP-40 in H2O was added to each well. Plates were sealed, incubated at 4° C. for 5 mins, vortexed extensively and centrifuged briefly. Next, 35 μL of lysate was added to 65 μL QuickExtract DNA Extraction Solution (Epicentre) in a PCR plate for each well. PCR plate was incubated at 65° C. for 6 mins, 98° C. for 2 mins and finally cooled to 4° C. HBV DNA was then quantified by qPCR with HBV-specific primers and probes as specified in Table 2 using the Bio-Rad SSOAdvanced Universal Probes Supermix on a CFX96 machine (Bio-Rad). The PCR cycle program consisted of 95° C. for 3 mins, followed by 40 cycles at 95° C. for 10 sec and 60° C. for 30 sec.
# A DNA standard was prepared by dilution of an IDT gBlock corresponding to the amplicon with concentrations ranging from 10^2 to 10^8 copies/input (i.e. per 4 μL) and used to generate a standard curve by plotting Cq values vs. HBV DNA standard concentration. The quantity of HBV DNA in each sample was determined by interpolating from the standard curve.
# Cell viability was calculated as follows: % Cell viability=(luminescence value of test sample)/(average luminescence value of 2% DMSO control)×100%. HBV DNA inhibition was calculated as follows: 100−(HBV DNA copy number of test sample)/(average HBV DNA copy number of 2% DMSO control)×100%. No normalization to entecavir was required due to the excellent dynamic window of this assay. The CC50, EC so and EC90 values were determined by dose-response curves fitted by GraphPad Prism using “log (agonist) vs. response—Variable slope”.
row,SMILES,EC50 [nM]
1,"O=C(c1ccc(Br)c(Cl)c1)N1CCS(=O)(=O)C(c2nccs2)C1 (stereo not shown) [Compound 27, (4-bromo-3-chloro-phenyl)-(1,1-dioxo-2-thiazol-2-yl-1,4-thiazinan-4-yl)methanone]",100 to 500
2,"O=C(c1ccc(Br)c(Cl)c1)N1CCS(=O)(=O)[C@@](F)(c2ncc(Cc3ccccc3)o2)C1 [Compound 46a, (R)-(2-(5-benzyloxazol-2-yl)-2-fluoro-1,1-dioxidothiomorpholino)(4-bromo-3-chlorophenyl)methanone]",≤ 100
3,"C[C@@H]1CS(=O)(=O)[C@H](c2cccs2)CN1C(=O)Nc1ccc(F)c(Cl)c1 [Compound 23, (2S,5R)-N-(3-chloro-4-fluorophenyl)-5-methyl-1,1-dioxo-2-(thiophen-2-yl)-1,4-thiomorpholine-4-carboxamide]",500 to 5000
4,"Cn1cnc(-c2ccc(C3CN(C(=O)Nc4ccc(F)c(Cl)c4)CCS3(=O)=O)s2)c1 (stereo not shown) [Compound 15a, N-(3-chloro-4-fluoro-phenyl)-2-[5-(1-methylimidazol-4-yl)-2-thienyl]-1,1-dioxo-1,4-thiazinane-4-carboxamide]",500 to 5000
5,N#Cc1cc(C(=O)N2CCS(=O)(=O)[C@@](F)(c3ncc(Cc4ccccc4-c4ncccn4)s3)C2)ccc1Br [Compound 45a],≤ 100
6,"Cc1cnc(C2CN(C(=O)c3ccc(Br)c(Cl)c3)CCS2(=O)=O)s1 (stereo not shown) [Compound 29, (4-bromo-3-chloro-phenyl)-[2-(5-methylthiazol-2-yl)-1,1-dioxo-1,4-thiazinan-4-yl]methanone]",≤ 100
7,"N=S1(=O)CCN(C(=O)Nc2ccc(F)c(Cl)c2)CC1c1cccs1 (stereo not shown) [Compound 17, N-(3-chloro-4-fluoro-phenyl)-1-imino-1-oxo-2-(2-thienyl)-1,4-thiazinane-4-carboxamide]",500 to 5000
8,O=C(c1ccc(Br)c(Cl)c1)N1CCS(=O)(=O)[C@](F)(C(=O)NCc2ccccc2)C1 [Compound 35a],≤ 100
9,N#Cc1cc(C(=O)N2CCS(=O)(=O)[C@@](F)(c3ncc(Cc4ccccc4)s3)C2)ccc1Br [Compound 40b],≤ 100
10,C[C@@H](c1cnc([C@@]2(F)CN(C(=O)c3ccc(Br)c(C#N)c3)CCS2(=O)=O)s1)c1ccccc1F [Compound 43a],≤ 100
11,C[C@@]1(C(=O)NCc2ccccc2)CN(C(=O)c2ccc(Br)c(Cl)c2)CCS1(=O)=O [Compound 33a],100 to 500
12,"CC(C)NC(=O)C1CN(C(=O)c2ccc(Br)c(Cl)c2)CCS1(=O)=O (stereo not shown) [Compound 1, 4-(4-bromo-3-chlorobenzoyl)-N-isopropylthiomorpholine-2-carboxamide 1,1-dioxide]",500 to 5000
13,O=C(c1ccc(Cl)c(Cl)c1)N1CCS(=O)(=O)C(c2nccs2)C1 (stereo not shown) [Compound 32],500 to 5000
14,N#Cc1cc(C(=O)N2CCS(=O)(=O)[C@](F)(c3ncc(Cc4ccccc4)s3)C2)ccc1Br [Compound 40a],500 to 5000
15,C[C@H](c1cnc([C@@]2(F)CN(C(=O)c3ccc(Br)c(C#N)c3)CCS2(=O)=O)s1)c1ccccc1F [Compound 43b],≤ 100
16,O=C(c1ccc(Br)c(Cl)c1)N1CCS(=O)(=O)[C@@](F)(C(=O)NCCc2ccccc2)C1 [Compound 38b],500 to 5000
17,C[C@@H](c1ccccc1)c1cnc([C@]2(F)CN(C(=O)c3ccc(Br)c(Cl)c3)CCS2(=O)=O)s1 [Compound 41d],500 to 5000
18,COc1ccc(Cc2cnc([C@]3(F)CN(C(=O)c4ccc(Br)c(Cl)c4)CCS3(=O)=O)s2)c(OC)c1 [Compound 49a],500 to 5000
19,C[C@H](c1ccccc1)c1cnc([C@]2(F)CN(C(=O)c3ccc(Br)c(Cl)c3)CCS2(=O)=O)s1 [Compound 41c],500 to 5000
20,"C[C@H]1CS(=O)(=O)[C@@H](c2cccs2)CN1C(=O)Nc1ccc(F)c(Cl)c1 [Compound 21, (2R,5S)—N-(3-chloro-4-fluoro-phenyl)-5-methyl-1,1-dioxo-2-(2-thienyl)-1,4-thiazinane-4-carboxamide]",100 to 500
21,"O=C(c1cc(F)cc(Cl)c1)N1CCS(=O)(=O)C(c2cccs2)C1 (stereo not shown) [Compound 13a, (3-chloro-5-fluoro-phenyl)-[1,1-dioxo-2-(2-thienyl)-1,4-thiazinan-4-yl]methanone]",500 to 5000
22,O=C(c1ccc(Br)c(Cl)c1)N1CCS(=O)(=O)[C@@](F)(C(=O)NCc2ccccc2)C1 [Compound 35b],500 to 5000
23,"C[C@@H]1CS(=O)(=O)[C@H](c2cccs2)CN1C(=O)c1ccc(Br)c(Cl)c1 [Compound 26, (4-bromo-3-chloro-phenyl)-[(2S,5R)-5-methyl-1,1-dioxo-2-(2-thienyl)-1,4-thiazinan-4-yl]methanone]",500 to 5000

# Same assay, conditions: intracellular HBV DNA by qPCR, day 4
row,SMILES,EC50 [nM]
1,"Cc1cc(Cl)ccc1C(=O)N1CCS(=O)(=O)C(c2cccs2)C1 (single isomer, unassigned) [Compound 12b, (4-chloro-2-methyl-phenyl)-[1,1-dioxo-2-(2-thienyl)-1,4-thiazinan-4-yl]methanone]",500 to 5000
2,"C[C@@H]1CS(=O)(=O)[C@](F)(c2ncc(Cc3ccccc3)s2)CN1C(=O)c1ccc(Br)c(Cl)c1 (stereo in doubt) [Compound 47a, (4-bromo-3-chloro-phenyl)-[(rac-2S,5R)-2-(5-benzylthiazol-2-yl)-2-fluoro-5-methyl-1,1-dioxo-1,4-thiazinan-4-yl]methanone]",> 5000
3,"O=C(c1ccc(Cl)c(F)c1)N1CCS(=O)(=O)C(c2cccs2)C1 (single isomer, unassigned) [Compound 7b, (4-chloro-3-fluoro-phenyl)-[1,1-dioxo-2-(2-thienyl)-1,4-thiazinan-4-yl]methanone]",500 to 5000
4,"C[C@@H](c1cnc([C@@]2(F)CN(C(=O)c3ccc(Br)c(Cl)c3)CCS2(=O)=O)s1)c1ccccc1F (racemic) [Compound 42a, (rac-2R)-4-(4-bromo-3-chlorobenzoyl)-2-fluoro-2-[5-[(rac-1R)-1-(2-fluorophenyl)ethyl]-1,3-thiazol-2-yl]-1λ^6-thiomorpholine-1,1-dione]",≤ 100
5,"C[C@H]1CS(=O)(=O)[C@](F)(c2ncc(Cc3ccccc3)s2)CN1C(=O)c1ccc(Br)c(Cl)c1 (stereo in doubt) [Compound 48a, (4-bromo-3-chloro-phenyl)-[(rac-2S,5S)-2-(5-benzylthiazol-2-yl)-2-fluoro-5-methyl-1,1-dioxo-1,4-thiazinan-4-yl]methanone]",100 to 500
6,"O=C(Nc1ccc(F)c(Cl)c1)N1CCS(=O)(=O)C(c2ccccc2)C1 (single isomer, unassigned) [Compound 18a, N-(3-chloro-4-fluoro-phenyl)-1, l-dioxo-2-phenyl-1,4-thiazinane-4-carboxamide]",500 to 5000
7,"O=C(c1ccc(Br)c(Cl)c1)N1CCS(=O)(=O)C(c2ccccc2)C1 (single isomer, unassigned) [Compound 19a, (4-bromo-3-chloro-phenyl)-(1,1-dioxo-2-phenyl-1,4-thiazinan-4-yl)methanone]",100 to 500
8,"C[C@@H](c1cnc(C2(F)CN(C(=O)c3ccc(Br)c(Cl)c3)CCS2(=O)=O)s1)c1ccccc1F (mixture of isomers) [Compound 42c, (rac-2S)-4-(4-bromo-3-chlorobenzoyl)-2-fluoro-2-[5-[(rac-1R)-1-(2-fluorophenyl)ethyl]-1,3-thiazol-2-yl]-1λ^6-thiomorpholine-1,1-dione]",> 5000

# — patent US11464783B2, “Heterocyclic compounds” (Aligos Therapeutics, Inc., priority 2019, dated 2022)
